Values after ≈ are worked out from the molar mass of the structure shown.
Key:
Type in all cases: functional
P388 = experiment: Effective dose against the p-388 mouse leukemia cell line; conditions: read-out: ED50 (the source's name)
CCRF-CEM = experiment: Effective dose for inhibition of proliferation of the leukemia cell line CCRF-CEM; conditions: Homo sapiens, read-out: ED50 (the source's name)
NCI-H226 = experiment: Effective dose for inhibition of proliferation of the lung cancer cell line NCI-H226; conditions: Homo sapiens, read-out: ED50 (the source's name)
HL-60 = experiment: Effective dose for inhibition of proliferation of the leukemia cell line HL-60(TB); conditions: Homo sapiens, read-out: ED50 (the source's name)

Structure (SMILES)	EC50 (P388) [µg/mL]	EC50 (CCRF-CEM) [µg/mL]	EC50 (NCI-H226) [µg/mL]	EC50 (HL-60) [µg/mL]
O=C1N[C@H]2C[C@H](O)[C@@H](O)C[C@@H]2c2cc3c(cc21)OCO3	0.45 (≈ 1.62 µM)	0.55 (≈ 1.98 µM)	0.65 (≈ 2.34 µM)	0.89 (≈ 3.21 µM)
O=C1N[C@H]2[C@H](O)CCC[C@@H]2c2cc3c(cc21)OCO3	40.1 (≈ 153 µM)	–	–	–

From ChEMBL document CHEMBL1133998, “Studies directed towards the refinement of the pancratistatin cytotoxic pharmacophore” (2001)
